Values quoted from earlier work, collected in US20250262254A1, “THERAPEUTIC COMPOSITIONS AND METHODS OF USING SEROTONIN MODULATING MICROBIOME-BASED INTERVENTIONS TO TREAT SEROTONIN-RELATED DISEASES OR DISORDERS” (HOLOBIOME, INC, priority 2019, published 2025).

System: mouse model
Details: microbiota-derived tryptamine

NCCc1c[nH]c2ccccc12 [tryptamine]
GI transit: accelerate GI transit
